Reference: patent publication US20220047569A1, “METHOD AND COMPOUND FOR USE, IN TREATING AND/OR PREVENTING NETOSIS” (Jubilant EpiPad LLC, priority 2020, published 2022)

Key:
[1] = system: Bleomycin (BLM)-induced mice fibrosis; test: Bleomycin induced lung fibrosis model; format: in vivo, C57BL/6 male mice; settings: 50 mg/kg, PO, BID
Text: Bleomycin (BLM)-induced mice fibrosis is a well-established animal model used to study pathogenesis of lung fibrosis and to estimate the potential anti-fibrotic agents. C57BL/6 male mice at 6-8 weeks of age were purchased from vivo biotech India (under the license from Taconic). The procedures involving the care and use of animals in the study was reviewed and approved by the Institutional Animal Care and Use Committee (IAEC/JDC/2018-161R) prior to conduct. During the study, the care and use of animals was in accordance with the principles outlined in the Guide for the Care and Use of Laboratory Animals, 8th Edition, 2010 (National Research Council) and every effort was made to minimize suffering. The animals were acclimatized for 7 days prior to experimental use. Mice were caged with free access to food and fresh water in a temperature-controlled room (22° C.-24° C.) on a 12 h light/dark cycle. Pulmonary fibrosis was induced by invasive method in animals using single intra-tracheal administration of 50 μg bleomycin prepared in 50 μL of saline under isoflurane anaesthesia. […] Animals were monitored and evaluated for their body weight loss. […] Fibronectin was measured as a PD biomarker by RT-qPCR and fold change in mRNA level was calculated after normalizing to GAPDH. […] The Modified Ashcroft Index score was determined for the vehicle-treated control mice and the test compound treated mice.

4T1 cells = test: Murine breast cancer efficacy model, 4T1 allograft; format: in vivo, Balb/C female mice; settings: for TGI (percent tumor growth inhibition): BID, PO, day 14, 4T1
Description: PAD4 is highly expressed in malignant tumours of various cell types, Here, the mouse mammary carcinoma of 4T1 and EMT6 cells were used as an experimental model. Mouse 4T1, and EMT-6, a breast cancer cell line was sourced from American Type Culture Collection (ATCC), USA. Cells were grown according to the product information. To establish allografts, the cells were harvested by trypsinization when they reached around 70 to 80% confluence. After harvesting, Balb/C female mice (7-8 weeks) were implanted with 4T1 (1 million cells/site) and EMT-6 (0.5 million cells/site) subcutaneously in the dorsal right flank of mice using a 1 mL BD syringe attached to a 24-gauge needle. When the tumors became palpable tumor measurement was initiated and at an approximate tumor volume of ˜110 and 93 mm3, respectively. Animals were randomized into different treatment groups keeping tumor volume and the number of animals/group similar across the groups and compound 143 treatment was initiated. The procedures involving the care and use of animals in the study was reviewed and approved by the Institutional Animal Care and Use Committee (IAEC/JDC/2021/246R) prior to conduct. During the study, the care and use of animals was in accordance with the principles outlined in the Guide for the Care and Use of Laboratory Animals, 8th Edition, 2010 (National Research Council) and every effort was made to minimize suffering. The animals were acclimatized for 7 days prior to experimental use. Mice were caged with free access to food and fresh water in a temperature-controlled room (22° C.-24° C.) on a 12 h light/dark cycle.
(§1) Tumor dimensions (length and breadth) were measured on days 1 (animal randomization based on tumor volume) and thrice weekly thereafter until study termination.
Tumor volumes were calculated using the formula (b2*1)*0.52 where l=length, b=breadth (Dusan Djokovic et al., BMC Cancer, 2010, 10:641).
The percent tumor growth inhibition (% TGI) as a function of anti-tumor efficacy were computed with respect to untreated vehicle control by comparing to the tumor volumes of day 1. […]

EMT-6 cells = test: Murine breast cancer efficacy model, EMT-6 allograft; format: in vivo, Balb/C female mice
Description: PAD4 is highly expressed in malignant tumours of various cell types, Here, the mouse mammary carcinoma of 4T1 and EMT6 cells were used as an experimental model. Mouse 4T1, and EMT-6, a breast cancer cell line was sourced from American Type Culture Collection (ATCC), USA. Cells were grown according to the product information. To establish allografts, the cells were harvested by trypsinization when they reached around 70 to 80% confluence. After harvesting, Balb/C female mice (7-8 weeks) were implanted with 4T1 (1 million cells/site) and EMT-6 (0.5 million cells/site) subcutaneously in the dorsal right flank of mice using a 1 mL BD syringe attached to a 24-gauge needle. When the tumors became palpable tumor measurement was initiated and at an approximate tumor volume of ˜110 and 93 mm3, respectively. Animals were randomized into different treatment groups keeping tumor volume and the number of animals/group similar across the groups and compound 143 treatment was initiated. […]
as §1
Tumor volumes were calculated using the formula (b2*1)*0.52 where l=length, b=breadth (Dusan Djokovic et al., BMC Cancer, 2010, 10:641). […]

With `N[C@@H]1CCCN(C(=O)c2cc3c4c(c2)nc(-c2cc5cccc(Cl)c5n2CC2CC2)n4CCO3)C1` [Compound 143, (R)-(3-aminopiperidin-1-yl)(2-(7-chloro-1-(cyclopropylmethyl)-1H-indol-2-yl)-3,4-dihydro-5-oxa-1,2a-diazaacenaphthylen-7-yl)methanone] the Lung weight ([1]; day 0 to 14, prophylactic) was “reduction in lung weight comparable to standard of care Nintedanib”, the “Fibronectin mRNA” value ([1]; lung, RT-qPCR normalized to GAPDH) was “stronger reduction of fibronectin mRNA as compared to Nintedanib” and the “TGI (percent tumor growth inhibition)” value (4T1 cells; 25 mg/kg) was 24.3%. The “TGI (percent tumor growth inhibition)” value (4T1 cells; 50 mg/kg) was 48.8%, the Body weight changes (4T1 cells; 4T1 bearing mice, BID PO for 14 days) was “no significant body weight changes” and the “TGI (percent tumor growth inhibition)” value (EMT-6 cells; 50 mg/kg, BID, PO, day 13, EMT-6) was 42.6%. The Body weight changes (EMT-6 cells; EMT-6 bearing mice, BID PO for 13 days) was “no significant body weight changes”.
